26 compounds from US11192899B2 (MERCK PATENT GMBH, priority 2017, dated 2021) can be followed below.

Format in all cases: cell-based
The target in one assay is T1, human A2A receptor (Homo sapiens, UniProt P29274).
T1 construct: expressed in transfected cells; host or cells: HEK293
Put plainly: cAMP HTRF functional assay, recombinant HEK293 cells expressing human A2A receptor, agonist NECA. On the procedure: (§1) The functional activities of human A2A, A2B, A1 and A3 receptors were determined by quantification of cAMP, being the second messenger for adenosine receptors.
(§2) Obtained raw data were normalized against the inhibitor control and the neural control (DMSO) and the normalized data were fitted using GeneData software.
In general terms: In TR-FRET formats the signal depends on donor and acceptor labels being close together.

The target in another assay is T2, human A1 receptor (Homo sapiens, UniProt P30542).
T2 construct: expressed in transfected cells; host or cells: CHO
T2 sequence (P30542 1-326): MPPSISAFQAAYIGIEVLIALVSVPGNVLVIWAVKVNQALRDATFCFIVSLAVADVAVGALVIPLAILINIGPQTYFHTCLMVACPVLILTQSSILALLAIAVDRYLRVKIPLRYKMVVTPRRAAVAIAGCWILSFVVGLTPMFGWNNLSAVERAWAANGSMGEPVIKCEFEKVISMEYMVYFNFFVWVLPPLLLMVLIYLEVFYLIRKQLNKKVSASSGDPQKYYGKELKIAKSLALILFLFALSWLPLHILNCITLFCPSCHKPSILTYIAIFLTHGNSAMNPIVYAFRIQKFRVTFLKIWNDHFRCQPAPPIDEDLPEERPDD
The assay is described as follows: cAMP HTRF functional assay, recombinant CHO cells expressing human A1 receptor, forskolin and agonist CPA. The method, then: as §1
For human A1 and A3 receptors, recombinant CHO cells, expressing either A1 or A3-receptor, were used. As both receptors couple to Gi proteins, the assay protocol was adapted:
Cells were seeded into 384-well plates, forskolin, test compounds and agonists (CPA for A1- and IB-MECA for A3-receptor) were added. After 30 min incubation, HTRF reagents (cAMP dynamic 2, Cis Bio) were added and the cellular cAMP levels were determined using the ENVISION (Perkin Elmer) plate reader.
as §2

Another assay addresses T3, A2B receptors (Homo sapiens, UniProt P29275).
T3 sequence (P29275 1-332): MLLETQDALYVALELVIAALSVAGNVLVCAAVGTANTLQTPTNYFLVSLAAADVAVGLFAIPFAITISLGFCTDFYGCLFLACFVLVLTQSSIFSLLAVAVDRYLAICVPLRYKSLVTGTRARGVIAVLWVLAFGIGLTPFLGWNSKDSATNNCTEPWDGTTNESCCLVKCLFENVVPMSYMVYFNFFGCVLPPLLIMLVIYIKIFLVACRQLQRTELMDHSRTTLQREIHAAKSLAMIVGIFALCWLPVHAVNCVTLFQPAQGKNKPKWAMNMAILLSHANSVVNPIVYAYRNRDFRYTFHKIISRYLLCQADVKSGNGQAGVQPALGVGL
Put plainly: cAMP HTRF functional assay, recombinant HEK293 cells expressing human A2B receptor, agonist NECA. More on the design: expressed in transfected cells; host or cells: HEK293. The method, then:
as §1, §2

Like-named read-outs stand apart in the source and are kept apart here. Where only a bound is given, the exact number is not on record here.

T1 sequence (P29274 whole entry): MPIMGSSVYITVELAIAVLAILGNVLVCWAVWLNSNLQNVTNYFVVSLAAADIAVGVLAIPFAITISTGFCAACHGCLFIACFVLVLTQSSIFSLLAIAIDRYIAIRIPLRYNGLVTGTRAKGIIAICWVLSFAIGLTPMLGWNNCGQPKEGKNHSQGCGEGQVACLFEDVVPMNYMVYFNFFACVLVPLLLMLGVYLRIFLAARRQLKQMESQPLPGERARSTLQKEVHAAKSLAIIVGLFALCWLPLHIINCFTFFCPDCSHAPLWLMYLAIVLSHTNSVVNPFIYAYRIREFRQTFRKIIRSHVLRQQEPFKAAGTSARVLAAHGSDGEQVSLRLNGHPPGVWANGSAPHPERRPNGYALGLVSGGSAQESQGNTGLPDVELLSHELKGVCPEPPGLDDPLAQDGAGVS

For the compound “4-Hydroxy-4-methyl-piperidine-1-carboxylic acid (5-methoxy-8-phenyl-pyrido[3,4-b]pyrazin-3-yl)-amide [compound 15]”, on human A2A receptor (recombinant HEK293 cells, cAMP, agonist NECA), the IC50 – broadly, the midpoint of a concentration-inhibition curve – is less than 100 nM.
As to `COc1ccc(C2CCOCC2)c2ncc(NC(=O)N3CC4(C3)CS(=O)(=O)C4)nc12` [compound 18], the IC50 was more than 1000 nM at human A1 receptor and less than 100 nM on human A2A receptor.
Regarding `COc1ccc(-c2cccc(F)c2)c2ncc(NC(=O)N3CCC(C)(O)CC3)nc12` [compound 62], the IC50 was more than 1000 nM at A2B receptors, less than 1000 nM at human A1 receptor and less than 100 nM on human A2A receptor.
In the same order, the values of `COc1ccc(C2CCOCC2)c2ncc(NC(=O)c3cnn(C)c3)nc12` [compound 68] are more than 1000 nM, more than 1000 nM and less than 10 nM.
The like results for `COc1ccc(C2CCOCC2)c2ncc(NC(=O)c3cnc(C)s3)nc12` [compound 78] were, in that order, less than 1000 nM, more than 1000 nM and less than 10 nM.
The like results for `C#CCC1(O)CCN(C(=O)Nc2cnc3c(C4CCOCC4)cnc(OC)c3n2)CC1` [compound 103, 4-Hydroxy-4-prop-2-ynyl-piperidine-1-carboxylic acid [5-methoxy-8-(tetrahydro-pyran-4-yl)-pyrido[3,4-b]pyrazin-3-yl]-amide] were, in that order, more than 1000 nM, more than 1000 nM and less than 10 nM.
For `COc1ncc(C2CCOCC2)c2ncc(NC(=O)N3CCC(C)(CO)CC3)nc12` [compound 104, 4-Hydroxymethyl-4-methyl-piperidine-1-carboxylic acid [5-methoxy-8-(tetrahydro-pyran-4-yl)-pyrido[3,4-b]pyrazin-3-yl]-amide], the IC50 at human A2A receptor was less than 10 nM.
`CCCCc1ccc(OC)c2nc(NC(=O)N3CCC(C)(O)CC3)cnc12` [compound 108, N-(5-butyl-8-methoxyquinoxalin-2-yl)-4-hydroxy-4-methylpiperidine-1-carboxamide]: the results for the IC50 on A2B receptors, on human A1 receptor and on human A2A receptor were more than 1000 nM, more than 1000 nM and less than 100 nM, respectively.
As for `COc1ccc(C2=CCOCC2)c2ncc(NC(=O)N3CCC(C)(O)CC3)nc12` [compound 109, N-[5-(3,6-dihydro-2H-pyran-4-yl)-8-methoxyquinoxalin-2-yl]-4-hydroxy-4-methylpiperidine-1-carboxamide], the IC50 on A2B receptors is more than 1000 nM; at human A1 receptor it was less than 1000 nM; on human A2A receptor, less than 10 nM.
For `COc1ccc(-c2cccnc2)c2nc(NC(=O)N3CCC(C)(O)CC3)cnc12` [compound 112, 4-hydroxy-N-[5-methoxy-8-(pyridin-3-yl)quinoxalin-2-yl]-4-methylpiperidine-1-carboxamide], the IC50 at human A1 receptor is more than 1000 nM; on human A2A receptor it was less than 100 nM.
As for `COc1ccc(-c2cnn(Cc3ccccn3)c2)c2ncc(NC(=O)N3CCC(C)(O)CC3)nc12` [compound 114, 4-hydroxy-N-(8-methoxy-5-{1-[(pyridin-2-yl)methyl]-1H-pyrazol-4-yl}quinoxalin-2-yl)-4-methylpiperidine-1-carboxamide], the results for the IC50 on A2B receptors, on human A1 receptor and on human A2A receptor were more than 1000 nM, less than 1000 nM and less than 100 nM, respectively.
For `CNC(=O)c1cc(-c2ccc(OC)c3nc(NC(=O)N4CCC(C)(O)CC4)cnc23)ccn1` [compound 115, 4-{2-[(4-hydroxy-4-methylpiperidine-1-carbonyl)amino]-8-methoxyquinoxalin-5-yl}-N-methylpyridine-2-carboxamide], at human A2A receptor, the IC50 was less than 100 nM.
Take `COc1ccc(-c2cnn(C3CN(C(=O)OC(C)(C)C)C3)c2)c2ncc(NC(=O)N3CCC(C)(O)CC3)nc12` [compound 116, tert-butyl 3-(4-{2-[(4-hydroxy-4-methylpiperidine-1-carbonyl)amino]-8-methoxyquinoxalin-5-yl}-1H-pyrazol-1-yl)azetidine-1-carboxylate]: the IC50 was more than 1000 nM on A2B receptors, less than 1000 nM at human A1 receptor and less than 100 nM on human A2A receptor.
The like results for `COCCOc1cccc(-c2ccc(OC)c3nc(NC(=O)N4CCC(C)(O)CC4)cnc23)c1` [compound 117, 4-hydroxy-N-{8-methoxy-5-[3-(2-methoxyethoxy)phenyl]quinoxalin-2-yl}-4-methylpiperidine-1-carboxamide] were, in that order, more than 1000 nM, more than 1000 nM and less than 100 nM.
In the same order, the values of `COCCOCCn1cc(-c2ccc(OC)c3nc(NC(=O)N4CCC(C)(O)CC4)cnc23)cn1` [compound 119, 4-hydroxy-N-(8-methoxy-5-{1-[2-(2-methoxyethoxy)ethyl]-1H-pyrazol-4-yl}quinoxalin-2-yl)-4-methylpiperidine-1-carboxamide] are more than 1000 nM, more than 1000 nM and less than 100 nM.
For the compound `COc1ccc(-c2cccc(F)c2F)c2ncc(NC(=O)c3cnc(C)o3)nc12` [compound 125, N-[5-(2,3-difluorophenyl)-8-methoxyquinoxalin-2-yl]-2-methyl-1,3-oxazole-5-carboxamide], the IC50 on human A1 receptor was less than 1000 nM; at human A2A receptor it was less than 100 nM.
For the compound `COc1ccc(-c2ccccc2F)c2ncc(NC(=O)c3cnc(C)o3)nc12` [compound 129, N-[5-(2-fluorophenyl)-8-methoxyquinoxalin-2-yl]-2-methyl-1,3-oxazole-5-carboxamide], the IC50 at A2B receptors was less than 100 nM; on human A2A receptor it was less than 10 nM.
In the case of `COc1ccc(C2CCOCC2)c2ncc(NC(=O)c3cnc(C)o3)nc12` [compound 130, N-[8-methoxy-5-(oxan-4-yl)quinoxalin-2-yl]-2-methyl-1,3-oxazole-5-carboxamide], the values for the IC50 on A2B receptors, on human A1 receptor and at human A2A receptor were less than 100 nM, more than 1000 nM and less than 10 nM, respectively.
Regarding `COc1ccc(C2=CCOCC2)c2ncc(NC(=O)c3cnc(C)o3)nc12` [compound 132, N-[5-(3,6-dihydro-2H-pyran-4-yl)-8-methoxyquinoxalin-2-yl]-2-methyl-1,3-oxazole-5-carboxamide], the IC50 at A2B receptors is less than 100 nM; at human A1 receptor, less than 1000 nM; at human A2A receptor it was less than 10 nM.
The like results for `COc1ccc(C2=CCOCC2)c2ncc(NC(=O)c3cnn(C)c3)nc12` [compound 135, N-[5-(3,6-dihydro-2H-pyran-4-yl)-8-methoxyquinoxalin-2-yl]-1-methyl-1H-pyrazole-4-carboxamide] were, in that order, less than 100 nM, less than 100 nM and less than 10 nM.
For `COc1ccc(C2=CCOCC2)c2ncc(NC(=O)C3(N)CC3)nc12` [compound 137, 1-amino-N-[5-(3,6-dihydro-2H-pyran-4-yl)-8-methoxyquinoxalin-2-yl]cyclopropane-1-carboxamide], the values for the IC50 on A2B receptors, at human A1 receptor and on human A2A receptor were more than 1000 nM, less than 1000 nM and less than 10 nM, respectively.
With `COc1ccc(C2=CCOCC2)c2ncc(NC(=O)C3(C(=O)N(C)C)CC3)nc12` [compound 144, N′1-[5-(3,6-dihydro-2H-pyran-4-yl)-8-methoxyquinoxalin-2-yl]-N1,N1-dimethylcyclopropane-1,1-dicarboxamide], the half-maximal inhibitory concentration (IC50) was more than 1000 nM on human A1 receptor and less than 100 nM on human A2A receptor.
Consider `COc1ccc(C2=CCOCC2)c2ncc(NC(=O)C3(CN(C)C)CC3)nc12` [compound 145, N-[5-(3,6-dihydro-2H-pyran-4-yl)-8-methoxyquinoxalin-2-yl]-1-[(dimethylamino)methyl]cyclopropane-1-carboxamide], for which the IC50 on human A1 receptor is more than 1000 nM; at human A2A receptor, less than 100 nM.
As to `COc1ccc(C2=CCOCC2)c2ncc(NC(=O)c3nnc(C)s3)nc12` [compound 146, N-[5-(3,6-dihydro-2H-pyran-4-yl)-8-methoxyquinoxalin-2-yl]-5-methyl-1,3,4-thiadiazole-2-carboxamide], the figures for the IC50 on human A1 receptor and at human A2A receptor were more than 1000 nM and less than 100 nM, respectively.
For the compound `COc1ccc(-c2cnn(C(F)F)c2)c2ncc(NC(=O)N3CCC(C)(O)CC3)nc12` [compound 158, N-{5-[1-(difluoromethyl)-1H-pyrazol-4-yl]-8-methoxyquinoxalin-2-yl}-4-hydroxy-4-methylpiperidine-1-carboxamide], the IC50 at human A1 receptor is more than 1000 nM; at human A2A receptor it was less than 100 nM.
In the same order, the values of `COc1ccc(N2CCCOCC2)c2ncc(NC(=O)C3CC3)nc12` [compound 161, N-[8-methoxy-5-(1,4-oxazepan-4-yl)quinoxalin-2-yl]cyclopropanecarboxamide] are more than 1000 nM and less than 100 nM.
